Data as given in patent US20240182465A1 (GENFLEET THERAPEUTICS (SHANGHAI) INC., priority 2021, published 2024).

Tests used:
HPK1 [1] = target: HPK1 (Homo sapiens, UniProt Q92918); assay: SLP76 phosphorylation assay (intracellular HPK1 inhibitory activity, p-SLP76 Ser376 sandwich ELISA); conditions: p-SLP76 IC50(nM), Jurkat, Clone E6-1 cells; 1 h compound pre-incubation, anti-CD3 beads stimulation 20 min; SLP76 phosphorylation at S376
Target sequence in this assay (Q92918 whole entry): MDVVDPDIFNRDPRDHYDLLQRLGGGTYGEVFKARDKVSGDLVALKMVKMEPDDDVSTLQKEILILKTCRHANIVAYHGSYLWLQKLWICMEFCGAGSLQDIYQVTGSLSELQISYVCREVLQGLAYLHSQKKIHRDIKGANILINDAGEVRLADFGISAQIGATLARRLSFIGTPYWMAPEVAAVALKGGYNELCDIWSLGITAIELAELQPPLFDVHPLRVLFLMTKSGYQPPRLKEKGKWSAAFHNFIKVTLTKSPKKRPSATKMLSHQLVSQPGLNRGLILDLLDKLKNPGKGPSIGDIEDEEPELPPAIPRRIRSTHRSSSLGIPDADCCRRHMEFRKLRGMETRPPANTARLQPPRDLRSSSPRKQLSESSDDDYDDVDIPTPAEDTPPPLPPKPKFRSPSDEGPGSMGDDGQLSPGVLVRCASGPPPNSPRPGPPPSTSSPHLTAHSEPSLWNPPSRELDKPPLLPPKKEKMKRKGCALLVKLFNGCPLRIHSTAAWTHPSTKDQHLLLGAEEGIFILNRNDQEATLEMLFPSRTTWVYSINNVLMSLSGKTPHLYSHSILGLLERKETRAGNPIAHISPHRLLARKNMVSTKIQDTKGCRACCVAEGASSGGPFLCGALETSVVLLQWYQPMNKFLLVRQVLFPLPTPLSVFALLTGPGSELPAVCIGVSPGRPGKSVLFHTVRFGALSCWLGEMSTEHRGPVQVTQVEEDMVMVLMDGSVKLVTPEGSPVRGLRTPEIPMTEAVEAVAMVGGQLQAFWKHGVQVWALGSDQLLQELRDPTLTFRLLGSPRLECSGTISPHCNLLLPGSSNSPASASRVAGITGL
Experimental: Intracellular HPK1 inhibitory activity was tested by the detection of SLP76 phosphorylation at S376.
(§1) Preparation of 1000× drug stock plate: a 1000× compound stock plate was prepared. […] The compound stock plate was sealed with a sealing film and stored in a −20° C. refrigerator for later use.
Preparation of Beads wash buffer: 0.1 mL FBS and 0.4 mL 0.5 M EDTA (with a final concentration of 2 mM) were added to 100 mL PBS and stored in a 4° C. refrigerator for later use.
100× Protease Inhibitor Cocktail in 1/20 total volume was added and stored on wet ice for later use. The buffer was ready to use.
Cell inoculation and dosing: the 1000× drug stock plate was taken and melted at room temperature in the dark. […] Jurkat cells in the logarithmic growth phase were selected and collected. […] The cells were inoculated into a 96-well plate (the volume was 90 μL per well), and a blank control well (without cells inoculation, and in which 110 μL of medium was added) was set. 10 μL of a drug-containing culture medium (10×) was transferred from the 10× drug intermediate plate into the 96-well cell plate (with a final concentration of 0.1% DMSO), and set a DMSO control group (in which 0.1% DMSO was added to the treated cells), a stimulated control group (in which 10 μL of culture medium was added to treat cells) and an unstimulated group (in which 10 μL of culture medium was added to treat cells). The wells were duplicated, gently patted, mixed, and then placed into a 5% CO2 incubator at 37° C. for 1 h.
Anti-CD3 beads stimulation: Dynabeads anti-human CD3 was taken, shaken, and mixed for 60 s. The required volume of beads was pipetted, and an equal volume or at least 1 mL of washing solution was added to wash once. Fresh complete medium was then added to resuspend and adjust the density of the beads to 4×10^7/mL, and the beads were placed on ice for later use. At the end of drug pre-incubation, the cell culture plate was taken out. 10 μL Dynabeads anti-human CD3 was added to each well to treat the cells, and 10 μL the culture medium was added to the unstimulated group. The cell culture plate was shaken to mix well at 2500 rpm for 10 s, and then placed into a 5% CO2 incubator at 37° C. and continued to culture for 20 min.
Detection of p-SLP76 protein level. PathScan Phospho-SLP-76 (Ser376) Sandwich ELISA Kit was applied to detect p-SLP76 protein level. At the end of the Anti-CD3 beads stimulation, the cell culture plate was removed from the incubator. […] After lysis, the cell culture plate was centrifuged at 4° C., 400×g for 5 min. 25 μL of sample and 75 μL of sample diluent were added to each well, and the plate was placed in a 5% CO2 incubator at 37° C. for 2 h. The subsequent detection steps were carried out following the kit instructions, and the absorbance (OD value) of each well was read at 450 nm by a microplate reader.

HPK1 [2] = target: T1, HPK1 (Homo sapiens, UniProt Q92918); assay: HPK1 kinase activity assay (ADP-Glo); conditions: HPK1 Kinase activity IC50 (nM), 1 nM HPK1, 10 μM ATP, 0.1 μg/μL MBP
T1 sequence (Q92918 1-346 limits assumed): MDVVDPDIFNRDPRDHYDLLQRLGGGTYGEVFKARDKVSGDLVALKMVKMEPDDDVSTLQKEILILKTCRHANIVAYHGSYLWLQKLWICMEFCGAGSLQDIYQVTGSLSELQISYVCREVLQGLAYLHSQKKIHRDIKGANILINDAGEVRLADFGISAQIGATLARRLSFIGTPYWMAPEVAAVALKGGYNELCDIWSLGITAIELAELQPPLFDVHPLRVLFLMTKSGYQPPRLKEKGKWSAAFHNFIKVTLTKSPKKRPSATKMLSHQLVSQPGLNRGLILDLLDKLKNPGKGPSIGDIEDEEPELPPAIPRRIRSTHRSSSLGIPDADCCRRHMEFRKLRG
Experimental: Preparation of buffer: 1× reaction buffer (40 mM Tris-HCl, 20 mM MgCl2, 0.01% Brij35, 50 μM DTT, 0.1 mg/ml BSA) was prepared using sterile water, which was prepared and used on the day of the experiment.
as §1
Compound preparation and dosing: the 1000× drug stock plate was taken and melted at room temperature in the dark. Then 5× drug intermediate plate was prepared using reaction buffer and mixed well. 2 μL was transferred from the 5× drug intermediate plate into a 384-well plate, and negative control well and positive control well (in which 2 μL reaction buffer containing 0.5% DMSO was added) were set. Each point was repeated twice.
Preparation and incubation of reaction mixture: HPK1 protein was diluted to a 2.5× working solution with reaction buffer. 4 μL 2.5×HPK1 protein was added to each well containing test compound and positive control well, and 4 μL of reaction buffer without HPK1 protein was added to the negative control well. The obtained mixture was centrifuged at 1000 rpm for 1 min and then incubated in a 20° C. incubator for 15 min. A 2.5× mixed working solution of MBP protein and ATP was prepared with reaction buffer at concentrations of 0.5 μg/μL and 50 PM, respectively. 4 μL of the mixed working solution of MBP and ATP was added to each well, centrifuged at 1000 rpm for 1 min, and then incubated in a 20° C. incubator for 90 min.
ADP-Glo detection and reading plate: 10 μl ADP-Glo was added to each well of the test plate. The resulting mixture was centrifuged at 1000 rpm for 1 min and incubated in a 20° C. incubator for 60 min. Then 10 μL of the final incubation solution was transferred from the test plate to a new 384-well plate. 10 μL of kinase detection reagent was added to each well, centrifuged at 400 g for 1 min, and incubated in a 20° C. incubator for 60 min. Chemiluminescent signals were read by a microplate reader.

SMILES | IC50 (HPK1 [1]) [nM] | IC50 (HPK1 [2]) [nM]
COCC(=O)N1CCc2cc(-c3cnc4[nH]cc(C(C)C)c4c3)cc([C@@H]3CCCN3)c2C1 [Compound Z404] | 113 | 0.32
C[C@](O)(C(=O)N1CCc2cc(-c3cnc4[nH]cc(Cl)c4c3)cc([C@@H]3CCCN3)c2C1)C(F)(F)F [Compound Z405, (S)-1-(6-(3-chloro-1H-pyrrolo[2,3-b]pyridin-5-yl)-8-((S)-pyrrolidin-2-yl)-3,4-dihydroisoquinolin-2(1H)-yl)-3,3,3-trifluoro-2-hydroxy-2-methylpropan-1-one] | 89.8 | 0.23
Cc1[nH]c2ncc(-c3cc4c(c([C@@H]5CCCN5)c3)CN(C(=O)[C@](C)(O)C(F)(F)F)CC4)cc2c1C [Compound Z414, (S)-1-(6-(2,3-dimethyl-1H-pyrrolo[2,3-b]pyridin-5-yl)-8-((S)-pyrrolidin-2-yl)-3,4-dihydroisoquinolin-2(1H)-yl)-3,3,3-trifluoro-2-hydroxy-2-methylpropan-1-one] | 2610 | 20.6
CCNC(=O)N1CCc2cc(-c3cnc4[nH]cc(C(C)C)c4c3)cc([C@@H]3COCCN3)c2C1 [Compound Z429] | 159 | 0.41
CC(C)c1c[nH]c2ncc(-c3cc4c(c([C@@H]5COCCN5)c3)CN(C(=O)C3(O)CC3)CC4)cc12 [Compound Z433, (R)-(1-hydroxycyclopropyl)(6-(3-isopropyl-1H-pyrrolo[2,3-b]pyridin-5-yl)-8-(morpholin-3-yl)-3,4-dihydroisoquinolin-2(1H)-yl)methanone] | 111 | 0.22
Cc1c[nH]c2ncc(-c3cc4c(c([C@@H]5CCCN5)c3)CN(CC3(O)CCOCC3)CC4)cc12 [Compound Z437] | 119 | 0.58
Cc1c[nH]c2ncc(-c3cc4c(c([C@@H]5CCCN5)c3)CN(C(=O)c3cnn(C(C)C)c3C(F)(F)F)CC4)cc12 [Compound Z438, (S)-[1-isopropyl-5-(trifluoromethyl)-1H-pyrazol-4-yl]-[6-(3-methyl-1H-pyrrolo[2,3-b]pyridin-5-yl)-8-[pyrrolidin-2-yl]-3,4-dihydroisoquinolin-2(1H)-yl]methanone] | 339 | 1.13
Cc1c[nH]c2ncc(-c3cc4c(c([C@@H]5CCCN5)c3)CN(C(=O)N3CCC(F)(F)CC3)CC4)cc12 [Compound Z440, (S)-(4,4-difluoropiperidin-1-yl)(6-(3-methyl-1H-pyrrolo[2,3-b]pyridin-5-yl)-8(pyrrolidin-2-yl)-3,4-dihydroisoquinolin-2(1H)-yl)methanone] | 142 | 0.37
Cc1ccc(C(=O)N2CCc3cc(-c4cnc5[nH]cc(C)c5c4)cc([C@@H]4CCCN4)c3C2)cn1 [Compound Z441, (S)-(6-(3-methyl-1H-pyrrolo[2,3-b]pyridin-5-yl)-8-(pyrrolidin-2-yl)-3,4-dihydroisoquinolin-2(1H)-yl) (6-methylpyridin-3-yl)methanone] | 197 | 0.52

Next, values leading:

IC50 (HPK1 [1]) [nM] | IC50 (HPK1 [2]) [nM] | SMILES
61.3 | 0.19 | CC(C)(O)C(=O)N1CCc2cc(-c3cnc4[nH]cc(Cl)c4c3)cc([C@@H]3COCCN3)c2C1 [Compound Z418-1]
129 | 0.31 | COCC(=O)N1CCc2cc(-c3cnc4[nH]cc(C(C)C)c4c3)cc([C@@H]3COCCN3)c2C1 [Compound Z424-1]
210 | 0.78 | Cc1ccc(C(=O)N2CCc3cc(-c4cnc5[nH]cc(C)c5c4)cc([C@@H]4CCCN4)c3C2)nc1 [Compound Z439, (S)-(6-(3-methyl-1H-pyrrolo[2,3-b]pyridin-5-yl)-8-(pyrrolidin-2-yl)-3,4-dihydroisoquinolin-2(1H)-yl) (5-methylpyridin-2-yl)methanone]
412 | 1.5 | Cc1c[nH]c2ncc(-c3cc4c(c([C@@H]5CCCN5)c3)CN(CC3CCOCC3)CC4)cc12 [Compound Z442, (S)-6-(3-methyl-1H-pyrrolo[2,3-b]pyridin-5-yl)-8-(pyrrolidin-2-yl)-2-((tetrahydro-2H-pyran-4-yl)methyl)-1,2,3,4-tetrahydroisoquinoline]
